From patent US11591323B2, “Muscarinic agonists as non-steroidal and non-opioid analgesics and methods of use thereof” (Barry University, priority 2019, dated 2023)

Test system: rat aorta smooth muscle cells (mainly M2, lesser M3)
Assay: IPX level in primary culture of rat aorta smooth muscle cells
Type: cell-based
Settings: in words
Protocol: Effects of compounds 6A and 7A on both cAMP and IPX levels were also measured in primary cultures of rat aorta smooth muscle cells that express mainly M2 and to a lesser extent M3 receptors (FIG. 6). […] Receptor expression levels are far lower in tested native tissues than in transfected cell lines and vary among tissues, being highest in the striatum and lowest in the submaxillary gland. Relative expression levels of G-proteins are also known to vary among tissues and cell lines. Thus, it is great to see that the pharmacological profile of the new compounds is conserved despite these variations.
Cell culture and membrane preparation: Chinese hamster ovary (CHO) cells stably transfected with the genes of individual human variants of muscarinic receptors were purchased from Missouri S&T cDNA Resource Center (Rolla, Mo., USA). Fresh primary cell culture of smooth muscle cells (SMC) from rat aorta prepared as previously described was kindly provided by Dr. Lucie Bačáková. […]
Measurements of the production of cAMP and inositol phosphates: Levels of second messengers cAMP and inositol phosphates were determined in radiochemical chromatography assays as described previously. […] Samples were applied to alumina columns (1.5 g of alumina per column), washed with 2 ml ammonium acetate (pH=7.0) and eluted from columns with 4 ml ammonium acetate and measured by liquid scintillation spectrometry. […]

C[N+](C)(C)CCOC(N)=O [carbachol, reference compound]
IPX level: increase in IPX level
